From the NIST ThermoML archive (doi:10.1021/je500762n)
± gives the expanded uncertainty stated by the source.

Legend:
[1] = Crystal; DTA
[2] = Molar enthalpy of transition or fusion; conditions: Crystal; DSC

Normal melting temperature [1] | Molar enthalpy of transition or fusion [2] | Compound
61.07 ± 0.5 °C | 3.59 ± 0.12 kcal/mol | CCCCCCCC[n+]1csc2ccccc21.F[P-](F)(F)(F)(F)F [N-octylbenzothiazolium hexafluorophosphate]
86.2 ± 0.5 °C | 4.8 ± 0.167 kcal/mol | CCCCCCC[n+]1csc2ccccc21.F[P-](F)(F)(F)(F)F [3-heptylbenzo[d]thiazol-3-ium hexafluorophosphate]
85.64 ± 0.5 °C | 5.62 ± 0.167 kcal/mol | CCCCCC[n+]1csc2ccccc21.F[P-](F)(F)(F)(F)F [N-hexylbenzothiazolium hexafluorophosphate]
139.11 ± 0.5 °C | 7.22 ± 0.215 kcal/mol | CCCCC[n+]1csc2ccccc21.F[P-](F)(F)(F)(F)F [N-pentylbenzothiazolium hexafluorophosphate]
